# Literature values in patent publication US20250017894A1, “Formulation for Nasal Delivery of Cannabinoids” (priority 2019, published 2025).
compound,measurement,setting,value
"C=C(C)[C@@H]1CCC(C)=C[C@H]1c1c(O)cc(CCCCC)cc1O [CBD, Cannabidiol]","bioavailability, inhalation using vaporized CBD",inhalation of vaporized CBD,26-36%
same,bioavailability for intranasal administration,intranasal administration,34-46%
same,oral bioavailability,oral administration,6-15%
same,"bioavailability, sublingual administration",sublingual administration,20-35%
